Experimental data: ChEMBL document CHEMBL3877313, “3,4-Dihydropyrimidinone-coumarin analogues as a new class of selective agent against S. aureus: Synthesis, biological evaluation and molecular modelling study” (2017)
≈ marks a conversion by molar mass, not a printed value.

Tests used:
[1] = test system: Staphylococcus aureus; test: Antibacterial activity against Staphylococcus aureus ATCC 12598 after 24 hrs by broth microdilution method; assay type: functional; settings: ATCC 12598, 24 h
[2] = test system: Bacillus subtilis; test: Antibacterial activity against Bacillus subtilis ATCC 23857 after 24 hrs by broth microdilution method; assay type: functional; settings: ATCC 23857, 24 h
[3] = test system: Escherichia coli; test: Antibacterial activity against Escherichia coli ATCC 25922 after 24 hrs by broth microdilution method; assay type: functional; settings: ATCC 25922, 24 h
[4] = test system: Pseudomonas aeruginosa; test: Antibacterial activity against Pseudomonas aeruginosa ATCC 25619 after 24 hrs by broth microdilution method; assay type: functional; settings: ATCC 25619, 24 h
[5] = molecular target: Matrix metalloproteinase-9 (Homo sapiens) (UniProt P14780); test: Inhibition of MMP9 in inflamed tissue isolated from chronic periodontitis patient at 500 ug/l after 15 to 30 mins by gelatin zymographic method relative to control
Chain of Matrix metalloproteinase-9 (Homo sapiens) (P14780 whole entry): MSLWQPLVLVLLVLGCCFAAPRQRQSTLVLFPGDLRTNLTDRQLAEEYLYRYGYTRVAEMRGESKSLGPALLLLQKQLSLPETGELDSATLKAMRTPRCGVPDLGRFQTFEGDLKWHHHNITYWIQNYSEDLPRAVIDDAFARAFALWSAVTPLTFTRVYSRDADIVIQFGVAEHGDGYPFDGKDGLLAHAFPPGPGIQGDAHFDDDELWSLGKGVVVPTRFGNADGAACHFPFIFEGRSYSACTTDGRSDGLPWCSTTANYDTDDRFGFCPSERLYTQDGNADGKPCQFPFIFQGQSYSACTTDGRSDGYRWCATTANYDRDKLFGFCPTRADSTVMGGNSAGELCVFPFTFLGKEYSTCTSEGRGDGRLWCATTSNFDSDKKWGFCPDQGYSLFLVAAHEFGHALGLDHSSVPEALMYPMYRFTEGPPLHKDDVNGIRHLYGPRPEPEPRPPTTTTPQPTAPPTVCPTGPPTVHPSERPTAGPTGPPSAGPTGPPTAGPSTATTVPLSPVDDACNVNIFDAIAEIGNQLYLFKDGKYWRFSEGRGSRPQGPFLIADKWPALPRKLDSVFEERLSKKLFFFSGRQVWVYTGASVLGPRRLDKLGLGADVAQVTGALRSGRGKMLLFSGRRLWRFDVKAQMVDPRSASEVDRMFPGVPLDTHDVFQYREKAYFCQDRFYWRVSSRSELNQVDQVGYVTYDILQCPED

[6] = molecular target: 72 kDa type IV collagenase (Homo sapiens) (UniProt P08253); test: Inhibition of MMP2 in inflamed tissue isolated from chronic periodontitis patient at 500 ug/l after 15 to 30 mins by gelatin zymographic method relative to control
Chain of 72 kDa type IV collagenase (Homo sapiens) (P08253 110-660 limits assumed): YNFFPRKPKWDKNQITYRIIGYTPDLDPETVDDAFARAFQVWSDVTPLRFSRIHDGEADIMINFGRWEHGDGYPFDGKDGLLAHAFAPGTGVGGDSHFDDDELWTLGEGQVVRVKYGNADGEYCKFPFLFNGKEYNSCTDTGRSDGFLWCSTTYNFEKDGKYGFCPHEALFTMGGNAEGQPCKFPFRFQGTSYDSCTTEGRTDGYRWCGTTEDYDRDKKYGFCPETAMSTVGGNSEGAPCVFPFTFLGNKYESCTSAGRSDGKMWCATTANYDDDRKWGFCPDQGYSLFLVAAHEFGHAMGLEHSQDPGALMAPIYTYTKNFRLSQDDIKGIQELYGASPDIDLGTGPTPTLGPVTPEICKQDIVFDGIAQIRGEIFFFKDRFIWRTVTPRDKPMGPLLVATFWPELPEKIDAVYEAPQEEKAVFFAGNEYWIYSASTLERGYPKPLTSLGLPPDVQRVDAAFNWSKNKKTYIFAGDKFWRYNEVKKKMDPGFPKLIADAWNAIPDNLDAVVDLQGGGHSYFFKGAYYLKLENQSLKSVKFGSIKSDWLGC

Compound	MIC [1] [µg/mL]	MIC [2] [µg/mL]	MIC [3] [µg/mL]	MIC [4] [µg/mL]	inhibition [5] [%]	inhibition [6] [%]
CCOC(=O)C1=C(C)NC(=S)NC1c1cc(=O)oc2cc(C)ccc12 (configuration not stated)	6.25 (≈ 17.4 µM)	50 (≈ 140 µM)	25 (≈ 69.8 µM)	100 (≈ 279 µM)	30	80
CCOC(=O)C1=C(C)NC(=S)NC1c1cc(=O)oc2c1ccc1ccccc12 (configuration not stated)	0.4 (≈ 1.01 µM)	100 (≈ 254 µM)	0.4 (≈ 1.01 µM)	100 (≈ 254 µM)	95	90
CN(C)[C@@H]1C(O)=C(C(N)=O)C(=O)[C@@]2(O)C(O)=C3C(=O)c4c(O)cccc4[C@@](C)(O)[C@H]3C[C@@H]12					100	100
CCOC(=O)C1=C(C)NC(=S)NC1c1cc(=O)oc2ccc(Cl)cc12 (configuration not stated)	0.8 (≈ 2.11 µM)	50 (≈ 132 µM)	0.4 (≈ 1.06 µM)	100 (≈ 264 µM)		85
CCOC(=O)C1=C(C)NC(=O)NC1c1cc(=O)oc2c1ccc1ccccc12 (configuration not stated)	0.4 (≈ 1.06 µM)	100 (≈ 264 µM)	25 (≈ 66.1 µM)	25 (≈ 66.1 µM)	90	96
CCOC(=O)C1=C(C)NC(=S)NC1c1cc(=O)oc2ccc(C)cc12 (configuration not stated)	0.4 (≈ 1.12 µM)	100 (≈ 279 µM)	1.6 (≈ 4.46 µM)	100 (≈ 279 µM)		82
O=C(O)c1cn(C2CC2)c2cc(N3CCNCC3)c(F)cc2c1=O [CIPROFLOXACIN]	2 (≈ 6.04 µM)	2 (≈ 6.04 µM)		< 4		
CCOC(=O)C1=C(C)NC(=O)NC1c1cc(=O)oc2ccc(OC)cc12 (configuration not stated)	0.8 (≈ 2.23 µM)	100 (≈ 279 µM)	50 (≈ 140 µM)	25 (≈ 69.8 µM)	85	95
CCOC(=O)C1=C(C)NC(=O)NC1c1cc(=O)oc2cc(C)ccc12 (configuration not stated)	0.2 (≈ 0.584 µM)	50 (≈ 146 µM)	12.5 (≈ 36.5 µM)	100 (≈ 292 µM)	70	95
CCOC(=O)C1=C(C)NC(=O)NC1c1cc(=O)oc2ccc(C)cc12 (configuration not stated)	0.4 (≈ 1.17 µM)	12.5 (≈ 36.5 µM)	50 (≈ 146 µM)	100 (≈ 292 µM)	80	90
CCOC(=O)C1=C(C)NC(=S)NC1c1cc(=O)oc2ccc(OC)cc12 (configuration not stated)	0.8 (≈ 2.14 µM)	50 (≈ 134 µM)	25 (≈ 66.8 µM)	100 (≈ 267 µM)	10	87
CCOC(=O)C1=C(C)NC(=O)NC1c1cc(=O)oc2ccc(Cl)cc12 (configuration not stated)	3.12 (≈ 8.6 µM)	100 (≈ 276 µM)	25 (≈ 68.9 µM)	50 (≈ 138 µM)		85
